{
  "source": "paper PMC5766511",
  "about": "(Scientific Reports, 2018)",
  "key": {"[1]": {"target": "HLA-DR15 (DRB1*15:01) heterodimer (Homo sapiens, UniProt P01903+P01911)", "experiment": "biochemical", "format": "binding"}, "[2]": {"target": "HLA-DR3 (DRB1*03:01) heterodimer (Homo sapiens, UniProt P01903+P01911, A100K/A102G/A103R/A169T/F55Y/I96L/K41T/L162R/M171V/P40S/Q125H/Q178H/Q39Y/R42S/S66N/T106N/T262R/W38E/Y61H)", "sequence (P01903 26-254 limits assumed, other chains not shown)": "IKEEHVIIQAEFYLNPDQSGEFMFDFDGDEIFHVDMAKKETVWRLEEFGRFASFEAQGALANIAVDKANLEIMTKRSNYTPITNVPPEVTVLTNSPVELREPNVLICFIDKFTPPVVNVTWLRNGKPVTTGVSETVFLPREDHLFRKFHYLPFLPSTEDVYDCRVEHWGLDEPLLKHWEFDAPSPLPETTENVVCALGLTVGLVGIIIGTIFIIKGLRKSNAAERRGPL", "experiment": "biochemical"}, "[3]": {"tested_on": "draining lymph node cells of HLA-DR1 (DRB1*0101) transgenic mice", "format": "cell-based, mouse", "settings": "n = 6"}, "[4]": {"tested_on": "draining lymph node cells of HLA-DR1501 (DRB1*1501) transgenic mice", "format": "cell-based, mouse", "settings": "primed with 25 μg recombinant ZIKV Env; day 10 DLN cells; positive if > 2 SD above mean without antigen; n = 6; Fig. 2B"}, "[5]": {"tested_on": "draining lymph node cells of HLA-DQ8 (DQB1*0302) transgenic mice", "format": "cell-based, mouse", "settings": "n = 6"}, "[6]": {"tested_on": "splenocytes of ZIKV (PF13/251013-18) infected AG129 mice", "format": "cell-based, mouse", "settings": "n = 5"}},
  "note": "Entries after “also recorded” stand apart in the source; their conditions may differ.",
  "data": [
    {"compound": "CC(C)C[C@H](NC(=O)[C@H](Cc1ccc(O)cc1)NC(=O)[C@H](C)NC(=O)[C@H](CCCNC(=N)N)NC(=O)[C@H](CC(C)C)NC(=O)[C@H](CCC(N)=O)NC(=O)[C@H](CCC(=O)O)NC(=O)[C@H](C)NC(=O)[C@@H](N)CCC(=O)O)C(=O)N[C@@H](CC(=O)O)C(=O)NCC(=O)N[C@H](C(=O)NCC(=O)N[C@H](C(=O)N[C@@H](CCC(=O)O)C(=O)O)C(C)C)[C@@H](C)O", "note": "[A3 152–166]", "values": [
      {"measurement": "IC50", "setting": "[1]", "result": 40, "unit": "nM"}
    ]},
    {"compound": "CC[C@H](C)[C@H](NC(=O)[C@@H](NC(=O)[C@H](CCCCN)NC(=O)[C@H](C)NC(=O)[C@H](C)N)[C@@H](C)O)C(=O)N[C@@H](C)C(=O)N[C@@H](Cc1ccc(O)cc1)C(=O)N[C@@H](CC(=O)O)C(=O)N[C@@H](CCC(=O)O)C(=O)N[C@@H](CCC(=O)O)C(=O)N[C@@H](C)C(=O)N[C@@H](CCCNC(=N)N)C(=O)N[C@@H](CCCNC(=N)N)C(=O)NCC(=O)N[C@@H](CC(C)C)C(=O)N[C@@H](CCC(=O)O)C(=O)O", "note": "[MT2-16]", "values": [
      {"measurement": "IC50", "setting": "[2]", "result": 50, "unit": "nM"}
    ]},
    {"compound": "FNCLGMSNRDFLEGVSGATW [WNV P1]", "values": [
      {"measurement": "IFNγ ELISpot response of ZIKV Env primed T cells to peptide (in words), HLA-DR1", "setting": "[3]", "result": "significant responses"},
      {"measurement": "IFNγ ELISpot response of ZIKV Env primed T cells to peptide (in words), HLA-DR1501", "setting": "[4]", "result": "cross-reactive responses"},
      {"measurement": "IFNγ ELISpot response of ZIKV Env primed T cells to peptide (in words), HLA-DQ8", "setting": "[5]", "result": "significant responses"},
      {"measurement": "IFNγ ELISpot response of splenic cells to peptide", "setting": "[6]", "result": "Strong responses; also recorded: of similar magnitude to the ZIKV p1 response"}
    ]},
    {"compound": "KAACPTMGEAHNDKRADPAF [WNV P8, WNV Env variant of ZIKV Env peptide 8]", "values": [
      {"measurement": "IFNγ ELISpot response of ZIKV Env primed T cells to peptide (in words), HLA-DQ8", "setting": "[5]", "result": "cross-reactive epitope recognition"}
    ]}
  ]
}
